The structures appear in SMILES notation.

The assay deals with ASK1 kinase (Homo sapiens (Human), UniProt Q99683). Nature of the assay: RBC Kinase Assay (33P-ATP radiometric, myelin basic protein substrate). The class given is biochemical. To be noted: 20 ng ASK1 kinase, MBP substrate, 120 min at room temperature, 1% DMSO. The gist of the method: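 Radiometric filter-binding assay: 20 ng ASK1 with myelin basic protein in 20 mM Hepes pH 7.5, 10 mM MgCl2, 1 mM EGTA, 2 mM DTT, 1% DMSO; started with 33P-ATP, 120 min at room temperature. Reactions spotted on P81 paper, acid-washed, radioactivity counted; IC50 determined.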
Sequence of ASK1 kinase (Q99683 whole entry): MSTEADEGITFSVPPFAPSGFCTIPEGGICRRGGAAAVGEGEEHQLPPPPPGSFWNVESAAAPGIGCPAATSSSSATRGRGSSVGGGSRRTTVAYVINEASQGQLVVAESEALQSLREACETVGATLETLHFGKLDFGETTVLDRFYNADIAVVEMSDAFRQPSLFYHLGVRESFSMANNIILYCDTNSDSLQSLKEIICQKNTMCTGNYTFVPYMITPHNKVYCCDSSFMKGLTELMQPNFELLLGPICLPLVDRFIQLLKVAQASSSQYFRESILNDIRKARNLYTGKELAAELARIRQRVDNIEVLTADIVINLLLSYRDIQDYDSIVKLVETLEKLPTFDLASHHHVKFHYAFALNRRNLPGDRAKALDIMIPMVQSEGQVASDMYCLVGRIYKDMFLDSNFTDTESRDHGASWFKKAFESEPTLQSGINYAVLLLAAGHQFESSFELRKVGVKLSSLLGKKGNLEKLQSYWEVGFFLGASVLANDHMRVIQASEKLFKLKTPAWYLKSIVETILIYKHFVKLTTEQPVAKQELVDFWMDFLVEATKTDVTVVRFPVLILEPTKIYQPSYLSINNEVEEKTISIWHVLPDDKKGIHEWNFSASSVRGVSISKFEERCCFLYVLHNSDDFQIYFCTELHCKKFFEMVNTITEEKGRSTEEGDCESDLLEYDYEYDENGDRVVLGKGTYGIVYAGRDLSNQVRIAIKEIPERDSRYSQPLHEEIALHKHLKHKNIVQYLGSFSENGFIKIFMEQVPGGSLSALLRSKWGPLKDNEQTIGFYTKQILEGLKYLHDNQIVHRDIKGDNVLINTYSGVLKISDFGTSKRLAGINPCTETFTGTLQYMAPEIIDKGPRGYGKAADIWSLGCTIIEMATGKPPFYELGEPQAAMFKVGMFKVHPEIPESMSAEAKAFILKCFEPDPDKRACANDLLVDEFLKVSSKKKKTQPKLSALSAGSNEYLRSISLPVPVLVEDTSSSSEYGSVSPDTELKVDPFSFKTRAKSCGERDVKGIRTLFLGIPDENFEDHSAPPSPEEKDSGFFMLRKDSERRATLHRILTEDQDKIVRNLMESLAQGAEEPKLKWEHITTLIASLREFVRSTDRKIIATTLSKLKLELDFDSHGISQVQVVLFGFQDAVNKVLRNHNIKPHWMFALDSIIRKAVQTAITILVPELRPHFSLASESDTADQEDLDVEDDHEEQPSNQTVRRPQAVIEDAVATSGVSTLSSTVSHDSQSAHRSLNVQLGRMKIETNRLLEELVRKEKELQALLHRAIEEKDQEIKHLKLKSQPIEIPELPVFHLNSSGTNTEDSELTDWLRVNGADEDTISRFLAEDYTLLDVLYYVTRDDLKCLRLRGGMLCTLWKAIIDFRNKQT

Take `C[C@H]1COc2c(NC(=O)c3cc(-n4cnc(C5CC5)c4)c(N4CC[C@@H](O)C4)cn3)cccc2-c2nnnn21` [Example 78, 4-(4-cyclopropyl-1H-imidazol-1-yl)-5-((R)-3-hydroxypyrrolidin-1-yl)-N—((S)-5-methyl-5,6-dihydrobenzo[f]tetrazolo[1,5-d][1,4]oxazepin-8-yl)picolinamide]: the IC50 (usually the point on the concentration scale where inhibition reaches its midpoint) amounted to 4.7 nM.

With `Cc1cc(F)c(C(=O)Nc2cccc3c2OCCn2nnnc2-3)cc1-n1cnc(C2CC2)c1` [Example 79, 5-(4-cyclopropyl-1H-imidazol-1-yl)-N-(5,6-dihydrobenzo[f]tetrazolo[1,5-d][1,4]oxazepin-8-yl)-2-fluoro-4-methylbenzamide], it took 6.6 nM to reach half-maximal inhibition (IC50).

Take `C[C@H]1COc2c(NC(=O)c3cc(-n4cnc(C5CC5)c4)ccn3)cccc2-c2nncn21` [Example 80, (S)-4-(4-cyclopropyl-1H-imidazol-1-yl)-N-(5-methyl-5,6-dihydrobenzo[f][1,2,4]triazolo[4,3-d][1,4]oxazepin-8-yl)picolinamide]: 5.7 nM corresponded to half-maximal inhibition (IC50). As for `Cc1cc(F)c(C(=O)Nc2cccc3c2OCC(CO)n2cnnc2-3)cc1-n1cnc(C2CC2)c1` (stereo not shown) [Example 81, 5-(4-cyclopropyl-1H-imidazol-1-yl)-2-fluoro-N-(5-(hydroxymethyl)-5,6-dihydrobenzo[f][1,2,4]triazolo[4,3-d][1,4]oxazepin-8-yl)-4-methylbenzamide], the figure is 5.7 nM.
